Values quoted from earlier work in article PMC4704022, “Insights on FXR selective modulation. Speculation on bile acid chemical space in the discovery of potent and selective agonists” (Scientific Reports, 2016).

Assays:
[1] = tested on: FXR; parameters: method as in PMID 10360171; conditions: cited from earlier work
[2] = tested on: FXR; parameters: method as in PMID 25247751; conditions: read-out: EC50, FXR transactivation; cited from earlier work
[3] = tested on: OSTα expression; parameters: method as in PMID 25247751; conditions: compared with 6-ECDCA; cited from earlier work

| Compound | FXR ligand strength relative to CDCA (in words) [1] | EC50 [2] [µM] | Potency in inducing expression of OSTα (in words) [3] |
| --- | --- | --- | --- |
| C[C@H](CCC(=O)O)[C@H]1CC[C@H]2[C@@H]3CC[C@@H]4C[C@H](O)CC[C@]4(C)[C@H]3C[C@H](O)[C@]12C [deoxycholic acid] | weaker natural ligands | – | – |
| C[C@H](CCCOS(=O)(=O)O)[C@H]1CCC2C3C(CC[C@@]21C)[C@@]1(C)CCCC[C@H]1C[C@H]3O (stereo partly drawn) [compound 5, 7α-hydroxy-5β-cholan-24-sulfate] | – | ~9 | comparable to that of 6-ECDCA |
